Data on 29 compounds can be found in US11578061B2, “Inhibitors of LRRK2 kinase” (Halia Therapeutics, Inc., priority 2021, dated 2023).

Chain of recombinant human LRRK2 (catalytic domain only [amino acids 970-2527], GST-tagged) (Q5S007 970-2527): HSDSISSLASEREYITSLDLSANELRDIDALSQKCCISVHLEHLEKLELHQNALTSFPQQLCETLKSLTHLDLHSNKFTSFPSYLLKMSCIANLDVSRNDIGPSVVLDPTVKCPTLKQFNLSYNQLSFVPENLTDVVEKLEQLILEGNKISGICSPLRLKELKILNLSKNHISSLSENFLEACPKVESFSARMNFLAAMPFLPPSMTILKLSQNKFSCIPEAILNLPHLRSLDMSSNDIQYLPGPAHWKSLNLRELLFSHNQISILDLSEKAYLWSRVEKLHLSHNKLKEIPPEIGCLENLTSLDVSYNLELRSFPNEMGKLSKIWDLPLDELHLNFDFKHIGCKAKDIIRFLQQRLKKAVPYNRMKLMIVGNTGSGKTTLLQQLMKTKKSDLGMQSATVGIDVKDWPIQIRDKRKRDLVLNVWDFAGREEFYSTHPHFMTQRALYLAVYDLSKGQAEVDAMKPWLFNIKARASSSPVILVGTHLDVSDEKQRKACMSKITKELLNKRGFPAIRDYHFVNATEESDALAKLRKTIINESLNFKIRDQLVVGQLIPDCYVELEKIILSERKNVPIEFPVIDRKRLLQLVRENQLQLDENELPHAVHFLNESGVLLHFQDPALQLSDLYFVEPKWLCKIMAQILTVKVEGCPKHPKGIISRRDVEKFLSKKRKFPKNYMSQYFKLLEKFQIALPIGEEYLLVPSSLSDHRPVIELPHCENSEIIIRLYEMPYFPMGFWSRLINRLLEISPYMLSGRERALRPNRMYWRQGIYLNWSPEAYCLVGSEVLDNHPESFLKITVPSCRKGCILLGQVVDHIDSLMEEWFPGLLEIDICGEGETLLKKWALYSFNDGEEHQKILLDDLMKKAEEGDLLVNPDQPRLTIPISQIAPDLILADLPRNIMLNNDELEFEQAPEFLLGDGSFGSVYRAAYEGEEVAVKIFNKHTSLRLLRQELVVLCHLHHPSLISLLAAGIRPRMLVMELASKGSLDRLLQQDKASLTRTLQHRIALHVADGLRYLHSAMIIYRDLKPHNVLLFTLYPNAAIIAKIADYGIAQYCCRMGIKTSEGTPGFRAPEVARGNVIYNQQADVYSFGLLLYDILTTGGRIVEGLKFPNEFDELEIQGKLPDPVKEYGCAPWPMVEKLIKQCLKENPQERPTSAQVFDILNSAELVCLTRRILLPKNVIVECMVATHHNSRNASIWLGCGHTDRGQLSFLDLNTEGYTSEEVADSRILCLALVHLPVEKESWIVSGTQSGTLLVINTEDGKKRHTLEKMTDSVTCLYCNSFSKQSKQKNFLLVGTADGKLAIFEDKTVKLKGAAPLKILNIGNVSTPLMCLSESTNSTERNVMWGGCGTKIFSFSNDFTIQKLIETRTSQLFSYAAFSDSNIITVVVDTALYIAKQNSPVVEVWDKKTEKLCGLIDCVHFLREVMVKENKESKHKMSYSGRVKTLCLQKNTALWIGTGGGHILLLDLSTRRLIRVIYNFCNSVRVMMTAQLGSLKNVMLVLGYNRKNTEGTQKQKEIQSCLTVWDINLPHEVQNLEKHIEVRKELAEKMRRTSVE

This experiment deals with recombinant human LRRK2 (catalytic domain only [amino acids 970-2527], GST-tagged) (Homo sapiens (Human), UniProt Q5S007). Description: LRRK2 Enzymatic Assay. Type of experiment: biochemical. The note with it: LRRKtide substrate, [32P]-ATP. Here is the method:
LRRKtide substrate (peptide sequence RLGRDKYKTLRQIRQ, derived from human ezrin [amino acids 561-573], moesin [amino acids 539-553] and radixin [amino acids 558-570], obtained from SignalChem, catalogue #L10-58, reconstituted in 20 mM Tris-HCl at pH 7.5 to a final concentration of 1 mg/mL, assay concentration 20 μM) and recombinant human LRRK2 (catalytic domain only [amino acids 970-2527], GST-tagged, expressed in insect cells, obtained from ThermoFisher Scientific, catalogue #PV4874, 0.35 mg/mL, assay concentration 30 nM) were mixed in assay buffer (20 mM Hepes pH 7.5, 10 mM MgCl2, 1 mM EGTA, 0.02% Brij35, 0.02 mg/ml BSA, 0.1 mM Na3VO4, 2 mM DTT, 1% DMSO). Compounds of interest (in DMSO, serial 3-fold dilution from 10 μM to 0.5 nM) or control (1% DMSO) were dispensed into the kinase reaction mixture by Acoustic technology (Echo550; nanoliter range). After incubation at room temperature for 20 minutes, the kinase reaction was initiated by addition of [^32P]-ATP (Specific activity 10 μCi/μl) and the mixture was incubated at room temperature for 2 hours. The reaction was then stopped by spotting the reaction mixture on strips of phosphocellulose P81 paper. Following washing, the radioactivity of the P81 paper was measured and kinase activity data were expressed as the percent remaining kinase activity in test samples compared to vehicle (dimethyl sulfoxide) reactions. IC50 values and curve fits were obtained using Prism (GraphPad Software).
Take `CN1CCC(F)(COc2nc(Nc3ccc(N4CCOCC4)cc3)ncc2F)CC1` [Example 64, 5-fluoro-4-((4-fluoro-1-methylpiperidin-4-yl)methoxy)-N-(4-morpholinophenyl)py-rimidin-2-amine]: the IC50 (as a rule, the midpoint of a concentration-inhibition curve) is more than 400 nM.

With `N[C@H]1CC[C@H](COc2nc(Nc3ccc(N4CCOCC4)cc3)ncc2Cl)CC1` [Example 9, 4-(((1R,4R)-4-aminocyclohexyl)methoxy)-5-chloro-N-(4-morpholinophenyl) pyrimidin-2-amine], the 50% inhibitory concentration (IC50) was less than 50 nM. Next, `C[C@@H]1CN(c2ccc(Nc3ncc(F)c(OC[C@@H]4CCC[C@@H](O)C4)n3)cc2)C[C@H](C)O1` [Example 249, (1R,3R)-3-(((2-((4-((2S,6R)-2,6-dimethylmorpholino)phenyl)amino)-5-fluoropyrimidin-4-yl)oxy)methyl)cyclohexan-1-ol]: less than 50 nM. Take `Cc1nn(C(C)(C)C#N)cc1Nc1ncc(F)c(OCC2CCC(C)(O)CC2)n1` (centres unmarked) [Example 253, 2-(4-((5-fluoro-4-((4-hydroxy-4-methylcyclohexyl)methoxy)pyrimidin-2-yl)amino)-3-methyl-1H-pyrazol-1-yl)-2-methylpropanenitrile]: the IC50 was less than 50 nM. `CC(=O)N[C@H]1CC[C@H](COc2nc(Nc3cnn(C(F)(F)F)c3)ncc2F)CC1` [Example 187, N-((1R,4R)-4-(((5-fluoro-2-((1-(trifluoromethyl)-1H-pyrazol-4-yl)amino)pyrimidin-4-yl)oxy)methyl)cyclo-hexyl)acetamide]: the half-inhibitory concentration (IC50) fell in the range of 200 to 400 nM.

Turning to `COc1cnc(Nc2ccc(N3CCOCC3)cc2)nc1OC[C@H]1CC[C@H](N(C)C)CC1` [Example 55, 4-(((1R,4R)-4-(dimethylamino)cyclo-hexyl)methoxy)-5-methoxy-N-(4-morpholinophenyl)py-rimidin-2-amine], the concentration for half-maximal inhibition (IC50) is less than 50 nM. Next, `Fc1cnc(Nc2ccc(N3CCOCC3)cc2)nc1OCC1CCNCC1F` (centres unmarked) [Example 166, 5-fluoro-4-((3-fluoropiperidin-4-yl)methoxy)-N-(4-morpholinophenyl) pyrimidin-2-amine]: less than 50 nM. As for `CN[C@H]1CC[C@H](COc2nc(Nc3ccc(N4CCOCC4)cc3)ncc2C2CC2)CC1` [Example 45, 5-cyclopropyl-4-(((1R,4R)-4-(methylamino)cyclo-hexyl)methoxy)-N-(4-morpholinophenyl) pyrimidin-2-amine], the IC50 is 50 to 200 nM. The value for `OC1CCC(COc2ccnc(Nc3ccc(N4CCOCC4)cc3)n2)CC1` (centres unmarked) [Example 117, 4-(((2-((4-morpholinophenyl)amino)pyrimidin-4-yl)oxy)methyl)cyclohexanol] was 200 to 400 nM; that for `CC(C)n1cc(Nc2ncc(F)c(OCC34CCC(O)(CC3)CC4)n2)cn1` [Example 256, 4-(((5-fluoro-2-((1-isopropyl-1H-pyrazol-4-yl)amino)pyrimidin-4-yl)oxy)methyl)bicyclo[2.2.2]octan-1-ol] was less than 50 nM; that for `CC(=O)N[C@H]1CC[C@H](COc2nc(Nc3cnn(CCO)c3Cl)ncc2F)CC1` [Example 204, N-((1R,4R)-4-(((2-((5-chloro-1-(2-hydroxyethyl)-1H-pyrazol-4-yl)amino)-5-fluoropyrimidin-4-yl)oxy)methyl)cyclo-hexyl)acetamide] was less than 50 nM. In the case of `Cc1nn(C(C)(C)C#N)cc1Nc1ncc(Cl)c(OCC2CCN(C)CC2)n1` [Example 57, 2-(4-((5-chloro-4-((1-methylpiperidin-4-yl)methoxy)pyrimidin-2-yl)amino)-3-methyl-1H-pyrazol-1-yl)-2-methylpropanenitrile], the IC50 fell in the range of 50 to 200 nM.

In the case of `Cc1nn(C(C)(C)C#N)cc1Nc1ncc(Cl)c(OCC2CC3(C2)CN(C)C3)n1` [Example 70, 2-(4-((5-chloro-4-((2-methyl-2-azaspiro[3.3]heptan-6-yl)methoxy)pyrimidin-2-yl)amino)-3-methyl-1H-pyrazol-1-yl)-2-methylpropanenitrile], the IC50 was less than 50 nM. The value for `Cc1nn(C(C)(C)C#N)cc1Nc1ncc(Cl)c(OC[C@H]2CC[C@H](C(C)(C)O)CC2)n1` [Example 138, 2-(4-((5-chloro-4-(((1R,4R)-4-(2-hydroxypropan-2-yl)cyclohexyl)methoxy)pyrimidin-2-yl)amino)-3-methyl-1H-pyrazol-1-yl)-2-methylpropanenitrile] was less than 50 nM; that for `CC(C)n1cc(Nc2ncc(F)c(OC[C@H]3CC[C@H](NC(=O)C(F)(F)F)CC3)n2)cn1` [Example 210, 2,2,2-trifluoro-N-((1R,4R)-4-(((5-fluoro-2-((1-isopropyl-1H-pyrazol-4-yl)amino)pyrimidin-4-yl)oxy)methyl)cyclohexyl) acetamide] was less than 50 nM; that for `Cc1nn(C(C)(C)C#N)cc1Nc1nc(Cl)c(F)c(OC[C@H]2CC[C@H](O)CC2)n1` [Example 248, 2-(4-((4-chloro-5-fluoro-6-(((1R,4R)-4-hydroxycyclohexyl)methoxy)pyrimidin-2-yl)amino)-3-methyl-1H-pyrazol-1-yl)-2-methylpropanenitrile] was more than 400 nM.

Regarding `Cc1nn(C(C)(C)C#N)cc1Nc1ncc(Cl)c(OCC2CNC2)n1` [Example 27, 2-(4-((4-(azetidin-3-ylmethoxy)-5-chloropyrimidin-2-yl)amino)-3-methyl-1H-pyrazol-1-yl)-2-methylpropanenitrile], the IC50 is more than 400 nM. Next, `Cc1cnc(Nc2ccc(N3C[C@@H](C)O[C@@H](C)C3)cc2)nc1OCC1CCC(O)CC1` (stereo partly drawn) [Example 128, 4-(((2-((4-((2S,6R)-2,6-dimethylmorpholino)phenyl)amino)-5-methylpyrimidin-4-yl)oxy)methyl)cyclohexan-1-ol]: less than 50 nM; `C[C@@H]1CN(c2ccc(Nc3ncc(F)c(OCC4CCC(O)CC4)n3)cc2)C[C@H](C)O1` (stereo partly drawn) [Example 124, 4-(((2-((4-((2S,6R)-2,6-dimethylmorpholino)phenyl)amino)-5-fluoropyrimidin-4-yl)oxy)methyl)cyclohexan-1-ol]: less than 50 nM. The value for `CN[C@H]1CC[C@@H](COc2nc(Nc3cn(C4CC(C#N)C4)nc3C)ncc2Cl)C1` (stereo partly drawn) [Example 53, 3-(4-((5-chloro-4-(((1R,3S)-3-(methylamino)cyclo-pentyl)methoxy)py-rimidin-2-yl)amino)-3-methyl-1H-pyrazol-1-yl)cyclobutane-1-carbonitrile] was less than 50 nM; that for `CC(C)n1cc(Nc2ncc(F)c(OC[C@H]3CC[C@@H](O)CC3)n2)cn1` [Example 219, (1S,4S)-4-(((5-fluoro-2-((1-isopropyl-1H-pyrazol-4-yl)amino)pyrimidin-4-yl)oxy)methyl)cyclohexan-1-ol] was more than 400 nM; that for `CN[C@H]1CC[C@H](COc2ccnc(Nc3cn(C(C)(C)C#N)nc3C)n2)CC1` [Example 32, 2-methyl-2-(3-methyl-4-((4-(((1R,4R)-4-(methylamino)cyclo-hexyl)methoxy)pyrimidin-2-yl)amino)-1H-pyrazol-1-yl)propanenitrile] was less than 50 nM. For `C[C@@H]1CN(c2ccc(Nc3nccc(OCC45CCC(O)(CC4)CC5)n3)cc2)C[C@H](C)O1` [Example 142, 4-(((2-((4-((2S,6R)-2,6-dimethylmorpholino)phenyl)amino)pyrimidin-4-yl)oxy)methyl)bicyclo[2.2.2]octan-1-ol], the IC50 is more than 400 nM.

Turning to `O[C@H]1CC[C@H](COc2nc(Nc3cnn(C4CC4)c3)ncc2F)CC1` [Example 220, (1R,4R)-4-(((2-((1-cyclopropyl-1H-pyrazol-4-yl)amino)-5-fluoropyrimidin-4-yl)oxy)methyl)cyclohexan-1-ol], the IC50 was in the range of 50 to 200 nM. Consider `Cc1c(Nc2ncc(F)c(OC[C@H]3CC[C@H](O)CC3)n2)cnn1C(C)(C)C#N` [Example 234, 2-(4-((5-fluoro-4-(((1R,4R)-4-hydroxycyclohexyl)methoxy)pyrimidin-2-yl)amino)-5-methyl-1H-pyrazol-1-yl)-2-methylpropanenitrile], for which the IC50 was less than 50 nM. The value for `Fc1cnc(Nc2ccc(N3CCOCC3)cc2)nc1OCC1CCC(OC(F)(F)F)CC1` (single isomer, unassigned) [Example 281, 5-fluoro-N-(4-morpholinophenyl)-4-((4-(trifluoromethoxy)cyclohexyl)methoxy)pyrimidin-2-amine] was more than 400 nM; that for `CC(C)OC1CCC(COc2nc(Nc3ccc(N4C[C@@H](C)O[C@@H](C)C4)cc3)ncc2F)CC1` (mixture of isomers) [Example 279, N-(4-((2S,6R)-2,6-dimethylmorpholino)phenyl)-5-fluoro-4-((4-isopropoxycyclohexyl)methoxy)pyrimidin-2-amine] was 200 to 400 nM.

As to `CN1CCC(COc2nc(Nc3ccc(N4CCOCC4)cc3)ncc2Cl)CC1` [Example 56, 5-chloro-4-((1-methylpiperidin-4-yl)methoxy)-N-(4-morpholinophenyl)py-rimidin-2-amine], the IC50 is less than 50 nM.

Consider `N[C@H]1CC[C@@H](COc2ccnc(Nc3ccc(N4CCOCC4)cc3)n2)CC1` [Example 1, 4-(((1S,4S)-4-aminocyclohexyl)methoxy)-N-(4-morpholinophenyl) pyrimidin-2-amine], for which the IC50 is less than 50 nM.
